Experimental data: ChEMBL document CHEMBL1833850, “Thailandepsins: bacterial products with potent histone deacetylase inhibitory activities and broad-spectrum antiproliferative activities” (J Nat Prod, 2011)
pIC50: −log10 of the molar value.

How the values were obtained:
[1] = biological target: Histone deacetylase 9 (Homo sapiens, UniProt Q9UKV0)
[2] = biological target: Histone deacetylase 1/Nuclear receptor corepressor 2 (Homo sapiens, UniProt Q13547); assay: Inhibition of recombinant human HDAC1/NCOR2 using Boc-L-Lys(epsilon-acetyl)-AMC as substrate by two-step fluorogenic assay; type: protein-complex assay
[3] = biological target: T1, Histone deacetylase 7 (Homo sapiens, UniProt Q8WUI4)
T1 sequence (Q8WUI4 whole entry): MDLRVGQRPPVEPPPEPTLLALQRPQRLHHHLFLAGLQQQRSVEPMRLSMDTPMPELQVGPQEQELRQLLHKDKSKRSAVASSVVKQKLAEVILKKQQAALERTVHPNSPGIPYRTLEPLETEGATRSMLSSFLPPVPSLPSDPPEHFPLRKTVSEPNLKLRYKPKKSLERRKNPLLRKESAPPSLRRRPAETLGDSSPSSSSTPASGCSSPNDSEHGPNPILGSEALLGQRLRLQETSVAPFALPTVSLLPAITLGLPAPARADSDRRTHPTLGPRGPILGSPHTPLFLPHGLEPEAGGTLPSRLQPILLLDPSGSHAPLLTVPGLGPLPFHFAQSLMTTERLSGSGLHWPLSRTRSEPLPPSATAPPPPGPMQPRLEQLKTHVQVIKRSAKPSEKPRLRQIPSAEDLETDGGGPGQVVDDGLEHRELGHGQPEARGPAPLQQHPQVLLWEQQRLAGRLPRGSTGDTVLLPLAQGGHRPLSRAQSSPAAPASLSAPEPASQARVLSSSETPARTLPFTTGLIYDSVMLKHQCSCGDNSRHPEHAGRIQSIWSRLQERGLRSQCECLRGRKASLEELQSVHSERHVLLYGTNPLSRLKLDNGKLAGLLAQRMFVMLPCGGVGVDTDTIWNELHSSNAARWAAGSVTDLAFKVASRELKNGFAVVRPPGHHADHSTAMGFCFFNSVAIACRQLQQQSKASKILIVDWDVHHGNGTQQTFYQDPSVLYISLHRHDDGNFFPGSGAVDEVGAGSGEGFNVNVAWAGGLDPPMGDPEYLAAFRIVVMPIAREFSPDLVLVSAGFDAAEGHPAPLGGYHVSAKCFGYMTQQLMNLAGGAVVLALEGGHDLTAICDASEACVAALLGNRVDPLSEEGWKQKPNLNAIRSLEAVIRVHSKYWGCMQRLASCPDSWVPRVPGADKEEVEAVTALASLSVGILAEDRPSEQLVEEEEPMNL
Description: Inhibition of recombinant human HDAC7 using Boc-L-Lys(epsilon-trifluoroacetyl)-AMC as substrate by two-step fluorogenic assay

[4] = biological target: Histone deacetylase 4 (Homo sapiens, UniProt P56524)
[5] = biological target: T2, Histone deacetylase 8 (Homo sapiens, UniProt Q9BY41)
T2 sequence (Q9BY41 whole entry): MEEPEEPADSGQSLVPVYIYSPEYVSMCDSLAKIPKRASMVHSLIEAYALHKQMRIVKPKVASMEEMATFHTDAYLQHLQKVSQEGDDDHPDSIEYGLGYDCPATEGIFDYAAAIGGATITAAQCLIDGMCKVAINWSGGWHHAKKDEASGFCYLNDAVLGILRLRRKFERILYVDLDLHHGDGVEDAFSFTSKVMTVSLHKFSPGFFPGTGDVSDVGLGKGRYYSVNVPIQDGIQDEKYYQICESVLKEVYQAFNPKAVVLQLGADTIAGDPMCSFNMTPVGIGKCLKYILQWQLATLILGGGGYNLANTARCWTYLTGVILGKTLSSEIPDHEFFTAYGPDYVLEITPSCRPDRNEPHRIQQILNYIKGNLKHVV

[6] = biological target: Histone deacetylase 2/Nuclear receptor corepressor 2 (Homo sapiens, UniProt Q92769); assay: Inhibition of recombinant human HDAC2/NCOR2 using Boc-L-Lys(epsilon-acetyl)-AMC as substrate by two-step fluorogenic assay; type: protein-complex assay
[7] = biological target: Histone deacetylase 3/Nuclear receptor corepressor 2 (HDAC3/NCoR2) (Homo sapiens, UniProt O15379); type: protein-complex assay
[8] = biological target: T3, Protein deacetylase HDAC6 (Homo sapiens, UniProt Q9UBN7); assay: Inhibition of recombinant human HDAC6 using Boc-L-Lys(epsilon-acetyl)-AMC as substrate by two-step fluorogenic assay
T3 sequence (Q9UBN7 whole entry): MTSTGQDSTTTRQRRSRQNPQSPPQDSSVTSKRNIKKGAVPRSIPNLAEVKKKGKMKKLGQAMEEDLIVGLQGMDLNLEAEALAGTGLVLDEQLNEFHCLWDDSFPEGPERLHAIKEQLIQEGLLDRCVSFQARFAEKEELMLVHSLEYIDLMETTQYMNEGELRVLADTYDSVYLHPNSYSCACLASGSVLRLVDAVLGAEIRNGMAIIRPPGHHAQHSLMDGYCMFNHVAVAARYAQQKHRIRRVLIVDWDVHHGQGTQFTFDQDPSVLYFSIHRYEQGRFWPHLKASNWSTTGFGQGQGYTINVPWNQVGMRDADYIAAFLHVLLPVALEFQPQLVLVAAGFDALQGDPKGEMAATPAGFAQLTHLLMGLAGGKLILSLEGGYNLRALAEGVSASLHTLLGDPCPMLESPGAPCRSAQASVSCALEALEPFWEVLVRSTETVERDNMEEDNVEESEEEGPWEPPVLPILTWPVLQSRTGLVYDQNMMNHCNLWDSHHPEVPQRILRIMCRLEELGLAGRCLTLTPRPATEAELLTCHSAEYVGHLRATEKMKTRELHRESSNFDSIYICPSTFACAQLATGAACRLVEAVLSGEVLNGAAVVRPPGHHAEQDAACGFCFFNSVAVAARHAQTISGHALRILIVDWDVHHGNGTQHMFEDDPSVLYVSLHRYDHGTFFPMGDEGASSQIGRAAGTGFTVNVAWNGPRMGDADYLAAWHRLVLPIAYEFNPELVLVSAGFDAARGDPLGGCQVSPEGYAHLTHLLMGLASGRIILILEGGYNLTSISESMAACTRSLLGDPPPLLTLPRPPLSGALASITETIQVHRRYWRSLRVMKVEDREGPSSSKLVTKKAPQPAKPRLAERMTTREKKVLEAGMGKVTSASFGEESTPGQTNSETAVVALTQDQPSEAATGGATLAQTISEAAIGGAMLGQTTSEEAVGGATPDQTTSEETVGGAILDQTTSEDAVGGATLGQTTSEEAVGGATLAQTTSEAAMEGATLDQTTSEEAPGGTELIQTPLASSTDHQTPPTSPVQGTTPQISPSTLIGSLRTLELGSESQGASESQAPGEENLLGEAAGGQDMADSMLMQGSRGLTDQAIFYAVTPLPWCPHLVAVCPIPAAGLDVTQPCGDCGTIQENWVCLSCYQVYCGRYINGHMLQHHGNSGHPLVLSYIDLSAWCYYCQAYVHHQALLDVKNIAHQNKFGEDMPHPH

Histone deacetylase 4, sequence (P56524 whole entry): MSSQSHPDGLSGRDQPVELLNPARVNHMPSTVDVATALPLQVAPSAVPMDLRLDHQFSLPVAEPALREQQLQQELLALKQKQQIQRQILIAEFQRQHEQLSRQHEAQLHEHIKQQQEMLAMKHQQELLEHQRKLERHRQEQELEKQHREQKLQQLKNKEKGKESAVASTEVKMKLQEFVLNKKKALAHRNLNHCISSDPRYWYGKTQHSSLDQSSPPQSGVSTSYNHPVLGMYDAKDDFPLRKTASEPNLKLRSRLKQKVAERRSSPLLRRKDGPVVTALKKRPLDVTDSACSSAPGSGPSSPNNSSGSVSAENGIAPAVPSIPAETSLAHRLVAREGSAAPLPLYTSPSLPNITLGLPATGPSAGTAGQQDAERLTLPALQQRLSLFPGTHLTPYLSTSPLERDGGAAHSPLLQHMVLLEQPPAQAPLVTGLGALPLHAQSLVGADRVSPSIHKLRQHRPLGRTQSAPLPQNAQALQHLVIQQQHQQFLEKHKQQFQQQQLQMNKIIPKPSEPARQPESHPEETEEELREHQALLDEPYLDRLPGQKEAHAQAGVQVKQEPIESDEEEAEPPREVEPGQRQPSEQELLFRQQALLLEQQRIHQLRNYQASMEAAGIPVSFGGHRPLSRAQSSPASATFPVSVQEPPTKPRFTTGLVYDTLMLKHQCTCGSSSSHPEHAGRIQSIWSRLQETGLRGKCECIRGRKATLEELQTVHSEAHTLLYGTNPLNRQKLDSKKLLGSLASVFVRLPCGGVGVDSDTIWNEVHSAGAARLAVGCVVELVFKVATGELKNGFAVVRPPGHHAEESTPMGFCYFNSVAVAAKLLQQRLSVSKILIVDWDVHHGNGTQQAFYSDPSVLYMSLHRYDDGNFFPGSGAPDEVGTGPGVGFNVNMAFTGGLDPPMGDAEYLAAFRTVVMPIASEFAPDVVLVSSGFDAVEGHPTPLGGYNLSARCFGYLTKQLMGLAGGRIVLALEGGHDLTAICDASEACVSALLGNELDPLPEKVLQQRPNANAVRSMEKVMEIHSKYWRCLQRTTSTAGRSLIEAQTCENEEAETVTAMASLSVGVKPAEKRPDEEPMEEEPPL
Histone deacetylase 9, sequence (Q9UKV0 whole entry): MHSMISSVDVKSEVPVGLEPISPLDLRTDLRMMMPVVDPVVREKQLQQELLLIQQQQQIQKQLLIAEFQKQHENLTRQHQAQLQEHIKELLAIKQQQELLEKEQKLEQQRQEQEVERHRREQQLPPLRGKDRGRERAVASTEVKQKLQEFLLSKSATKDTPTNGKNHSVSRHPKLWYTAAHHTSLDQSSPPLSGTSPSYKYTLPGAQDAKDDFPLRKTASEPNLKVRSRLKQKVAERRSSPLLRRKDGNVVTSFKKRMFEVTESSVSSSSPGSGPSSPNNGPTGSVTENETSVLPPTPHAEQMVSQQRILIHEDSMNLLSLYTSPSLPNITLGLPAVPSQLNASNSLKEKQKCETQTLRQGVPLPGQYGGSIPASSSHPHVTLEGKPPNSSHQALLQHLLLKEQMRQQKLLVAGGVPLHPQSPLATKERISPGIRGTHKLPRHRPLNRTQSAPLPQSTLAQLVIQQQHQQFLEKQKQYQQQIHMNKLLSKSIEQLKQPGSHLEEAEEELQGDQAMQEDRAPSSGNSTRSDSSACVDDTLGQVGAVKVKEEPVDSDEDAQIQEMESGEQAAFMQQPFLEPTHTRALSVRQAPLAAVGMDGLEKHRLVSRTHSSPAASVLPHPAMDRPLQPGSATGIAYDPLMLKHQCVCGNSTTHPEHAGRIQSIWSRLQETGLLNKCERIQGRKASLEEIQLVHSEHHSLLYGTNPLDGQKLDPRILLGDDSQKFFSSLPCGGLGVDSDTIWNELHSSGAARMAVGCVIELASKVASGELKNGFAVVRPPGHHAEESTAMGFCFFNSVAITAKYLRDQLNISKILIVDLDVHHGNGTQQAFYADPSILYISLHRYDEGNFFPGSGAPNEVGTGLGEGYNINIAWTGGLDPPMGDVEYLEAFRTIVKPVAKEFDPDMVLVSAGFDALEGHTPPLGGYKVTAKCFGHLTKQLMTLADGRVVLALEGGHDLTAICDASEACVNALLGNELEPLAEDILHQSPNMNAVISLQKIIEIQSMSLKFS
Histone deacetylase 1/Nuclear receptor corepressor 2, sequence (Q13547 whole entry): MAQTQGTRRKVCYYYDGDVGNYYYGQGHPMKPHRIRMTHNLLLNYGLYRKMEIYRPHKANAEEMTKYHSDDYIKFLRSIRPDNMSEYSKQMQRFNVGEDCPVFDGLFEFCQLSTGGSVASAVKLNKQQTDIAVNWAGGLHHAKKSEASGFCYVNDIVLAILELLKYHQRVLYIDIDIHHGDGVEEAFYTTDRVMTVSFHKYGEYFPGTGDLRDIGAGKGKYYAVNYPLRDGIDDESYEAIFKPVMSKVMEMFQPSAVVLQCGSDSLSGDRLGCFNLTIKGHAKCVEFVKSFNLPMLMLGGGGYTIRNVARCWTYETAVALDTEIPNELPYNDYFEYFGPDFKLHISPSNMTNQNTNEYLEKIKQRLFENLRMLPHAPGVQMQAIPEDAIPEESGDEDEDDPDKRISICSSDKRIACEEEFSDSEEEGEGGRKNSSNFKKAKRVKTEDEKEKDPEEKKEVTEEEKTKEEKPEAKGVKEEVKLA
Histone deacetylase 1/Nuclear receptor corepressor 2, sequence (Q9Y618 whole entry, further chain): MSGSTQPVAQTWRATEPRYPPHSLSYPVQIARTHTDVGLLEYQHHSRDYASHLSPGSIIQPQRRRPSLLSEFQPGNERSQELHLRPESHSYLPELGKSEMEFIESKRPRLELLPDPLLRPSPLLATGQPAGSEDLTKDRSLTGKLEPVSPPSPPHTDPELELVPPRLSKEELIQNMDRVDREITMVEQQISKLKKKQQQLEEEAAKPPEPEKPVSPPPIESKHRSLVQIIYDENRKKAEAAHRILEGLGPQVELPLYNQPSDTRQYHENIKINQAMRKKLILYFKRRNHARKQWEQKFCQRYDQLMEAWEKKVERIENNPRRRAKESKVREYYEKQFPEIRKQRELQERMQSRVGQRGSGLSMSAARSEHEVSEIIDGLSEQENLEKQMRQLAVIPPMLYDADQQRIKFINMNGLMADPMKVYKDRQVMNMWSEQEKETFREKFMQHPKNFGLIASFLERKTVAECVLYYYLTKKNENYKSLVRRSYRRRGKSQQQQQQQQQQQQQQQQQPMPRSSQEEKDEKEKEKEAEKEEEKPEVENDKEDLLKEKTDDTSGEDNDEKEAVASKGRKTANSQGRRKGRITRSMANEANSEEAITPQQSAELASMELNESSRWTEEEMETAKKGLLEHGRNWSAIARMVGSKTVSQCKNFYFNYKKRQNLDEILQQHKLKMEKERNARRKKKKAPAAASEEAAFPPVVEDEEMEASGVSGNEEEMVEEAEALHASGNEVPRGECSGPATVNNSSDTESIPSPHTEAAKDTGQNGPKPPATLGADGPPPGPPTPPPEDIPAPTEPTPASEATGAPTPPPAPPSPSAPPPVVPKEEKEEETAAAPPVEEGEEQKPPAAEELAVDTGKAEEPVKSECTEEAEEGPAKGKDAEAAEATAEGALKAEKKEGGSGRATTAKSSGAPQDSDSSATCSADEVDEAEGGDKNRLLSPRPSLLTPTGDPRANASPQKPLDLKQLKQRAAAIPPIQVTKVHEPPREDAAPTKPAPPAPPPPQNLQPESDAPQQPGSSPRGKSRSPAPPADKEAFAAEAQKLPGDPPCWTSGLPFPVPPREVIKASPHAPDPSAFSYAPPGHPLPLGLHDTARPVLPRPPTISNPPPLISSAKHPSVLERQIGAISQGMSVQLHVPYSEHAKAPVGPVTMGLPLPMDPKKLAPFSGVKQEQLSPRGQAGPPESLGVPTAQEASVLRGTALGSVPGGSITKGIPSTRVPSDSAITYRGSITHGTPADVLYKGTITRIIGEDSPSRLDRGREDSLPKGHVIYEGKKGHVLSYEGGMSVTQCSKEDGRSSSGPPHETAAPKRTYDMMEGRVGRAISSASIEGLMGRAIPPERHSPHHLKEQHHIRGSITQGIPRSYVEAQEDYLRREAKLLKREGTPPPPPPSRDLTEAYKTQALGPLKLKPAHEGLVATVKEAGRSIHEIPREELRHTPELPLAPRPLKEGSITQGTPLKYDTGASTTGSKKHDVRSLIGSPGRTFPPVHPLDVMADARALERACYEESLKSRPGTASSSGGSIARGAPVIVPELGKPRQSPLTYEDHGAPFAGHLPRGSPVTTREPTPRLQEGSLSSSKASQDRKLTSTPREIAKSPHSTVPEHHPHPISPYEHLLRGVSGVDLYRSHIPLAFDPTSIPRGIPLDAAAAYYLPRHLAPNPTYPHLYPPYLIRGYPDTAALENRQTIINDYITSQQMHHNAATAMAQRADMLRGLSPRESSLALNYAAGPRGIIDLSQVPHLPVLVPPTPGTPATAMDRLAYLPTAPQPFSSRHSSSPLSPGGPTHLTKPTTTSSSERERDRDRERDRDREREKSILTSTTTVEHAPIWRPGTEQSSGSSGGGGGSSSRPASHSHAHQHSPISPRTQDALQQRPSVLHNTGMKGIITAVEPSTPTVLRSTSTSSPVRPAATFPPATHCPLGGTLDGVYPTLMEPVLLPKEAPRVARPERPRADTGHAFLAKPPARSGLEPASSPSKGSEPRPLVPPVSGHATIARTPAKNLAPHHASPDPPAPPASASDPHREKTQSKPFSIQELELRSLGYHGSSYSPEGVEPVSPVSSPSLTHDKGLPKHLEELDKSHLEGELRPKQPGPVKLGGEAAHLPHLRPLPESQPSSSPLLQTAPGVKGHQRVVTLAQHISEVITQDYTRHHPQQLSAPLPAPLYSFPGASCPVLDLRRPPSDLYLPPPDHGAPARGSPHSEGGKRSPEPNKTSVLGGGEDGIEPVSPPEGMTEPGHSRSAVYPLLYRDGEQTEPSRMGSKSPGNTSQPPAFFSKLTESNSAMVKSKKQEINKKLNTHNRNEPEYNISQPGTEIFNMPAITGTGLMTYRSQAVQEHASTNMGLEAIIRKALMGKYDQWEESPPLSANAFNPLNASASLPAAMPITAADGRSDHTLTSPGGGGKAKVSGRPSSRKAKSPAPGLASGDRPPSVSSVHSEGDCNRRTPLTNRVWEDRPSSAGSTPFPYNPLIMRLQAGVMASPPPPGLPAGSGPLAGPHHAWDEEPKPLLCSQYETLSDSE

Structure (SMILES)	pIC50 [1]	pIC50 [2]	pIC50 [3]	pIC50 [4]	pIC50 [5]	pIC50 [6]	pIC50 [7]	pIC50 [8]
C/C=C1\NC(=O)[C@H]2CSSCC/C=C/[C@H](CC(=O)N[C@H](C(C)C)C(=O)N2)OC(=O)[C@H](C(C)C)NC1=O [ROMIDEPSIN]	< 4.30	5.17	< 4.30	< 4.30				
CC[C@H](C)[C@H]1NC(=O)[C@H]2CSSCC/C=C/[C@H](CC(=O)N[C@H](CCSC)C(=O)N2)OC(=O)C[C@@H]1O [THAILANDEPSIN A]	< 4.30	5.12	< 4.30	< 4.30	< 4.30	4.41	7.06	5.00
CCCC[C@H]1NC(=O)C[C@H]2/C=C/CCSSC[C@@H](NC1=O)C(=O)N[C@H]([C@@H](C)CC)[C@@H](O)CC(=O)O2 [THAILANDEPSIN B]	< 4.30	5.11		4.66	4.52	5.35	7.64	4.96
